Among the data in ChEMBL document CHEMBL5370641, “Structure-Based Optimization and Biological Evaluation of Potent and Selective MMP-7 Inhibitors for Kidney Fibrosis” (J Med Chem, 2023) are IC50 values, retold here.

The target in experiment [1] is Matrix metalloproteinase-14 (Homo sapiens, UniProt P50281). Briefly: Inhibition of recombinant human MMP14 using MOCAc-Lys-Pro-Leu-Gly-Leu-A2pr(Dnp)-Ala-Arg-NH2 as substrate preincubated with compound for 15 mins followed by substrate addition and measured after 1 hrs by fluorescence based analysis.
In a further experiment the target is T1, Matrilysin (Homo sapiens, UniProt P09237).
T1 sequence (P09237 whole entry): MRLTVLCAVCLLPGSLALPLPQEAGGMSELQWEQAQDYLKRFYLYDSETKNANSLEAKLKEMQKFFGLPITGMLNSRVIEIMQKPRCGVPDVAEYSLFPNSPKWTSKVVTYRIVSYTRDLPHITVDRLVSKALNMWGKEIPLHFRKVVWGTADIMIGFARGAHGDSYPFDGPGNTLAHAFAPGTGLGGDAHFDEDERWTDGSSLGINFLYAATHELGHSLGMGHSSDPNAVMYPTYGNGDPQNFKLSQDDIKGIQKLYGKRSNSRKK
Briefly: Inhibition of recombinant human MMP7 using MOCAc-Pro-Leu-Gly-Leu-A2pr-(Dnp)-Ala-Arg-NH2 as substrate preincubated with compound for 15 mins followed by substrate addition and measured after 2 hrs by fluorescence based analysis.

The structures appear in SMILES notation. pIC50: −log10 of the molar value. Numbered stars: 1 amine (or outer) side, 2 acyl side, 3 side chain; on linkers, the order of the positions; unused ones are H or OH. Square brackets hold non-standard residues; d marks the D form. Peptide text beside a SMILES is read from it. * marks the point of attachment. Benzenesulfonyl(4-Cl,3-CF3) = O=S(=O)(c1ccc(Cl)c(C(F)(F)F)c1)*; Phe(4-CF3) = N[C@@H](Cc1ccc(C(F)(F)F)cc1)C(=O)O; Ala(4-Pyridazinyl) = N[C@@H](Cc1ccnnc1)C(=O)O; Ala(thiazol-2-yl) = N[C@@H](Cc1nccs1)C(=O)O; Phe(3-I) = N[C@@H](Cc1cccc(I)c1)C(=O)O; Phe(4-I) = N[C@@H](Cc1ccc(I)cc1)C(=O)O; γGlu = O=C(O)[C@H](CCC(=O)[*:2])N[*:1]; Phg = N[C@H](C(=O)O)c1ccccc1; Tle = CC(C)(C)[C@H](N)C(=O)O; β3hP = O=C(O)C[C@@H]1CCCN1

By pIC50 is commonly meant the negative decadic logarithm of the IC50, by convention in mol/L.

With `CC(C)(C)[C@H](NC(=O)[C@H](Cc1ccccc1)NC(=O)CNC(=O)CC[C@H](NS(=O)(=O)c1ccc(Cl)c(C(F)(F)F)c1)C(=O)O)C(=O)N1CCC[C@H]1CC(N)=O` ({Benzenesulfonyl(4-Cl,3-CF3)-γGlu}-GF[Tle][β3hP]-NH2), the pIC50 is 5.49 in experiment [1] and 7.89 at Matrilysin.

For the compound `CC(C)(C)[C@H](NC(=O)[C@H](Cc1cccc(I)c1)NC(=O)CNC(=O)CC[C@H](NS(=O)(=O)c1ccc(Cl)c(C(F)(F)F)c1)C(=O)O)C(=O)N1CCC[C@H]1CC(N)=O` ({Benzenesulfonyl(4-Cl,3-CF3)-γGlu}-G[Phe(3-I)][Tle][β3hP]-NH2), the negative-log IC50 (pIC50) in experiment [1] was 5.51; on Matrilysin it was 7.92.

Turning to `CC(C)(C)[C@H](NC(=O)[C@H](Cc1nccs1)NC(=O)CNC(=O)CC[C@H](NS(=O)(=O)c1ccc(Cl)c(C(F)(F)F)c1)C(=O)O)C(=O)N1CCC[C@H]1CC(N)=O` ({Benzenesulfonyl(4-Cl,3-CF3)-γGlu}-G[Ala(thiazol-2-yl)][Tle][β3hP]-NH2), the pIC50 in experiment [1] was 5.42; at Matrilysin it was 8.02.

For `CC(C)Cn1cc(-c2ccc(C[C@H](NC(=O)CNC(=O)CC[C@H](NS(=O)(=O)c3ccc(Cl)c(C(F)(F)F)c3)C(=O)O)C(=O)N[C@H](C(=O)N3CCC[C@H]3CC(N)=O)C(C)(C)C)cc2)cn1`, the pIC50 was 4.34 in experiment [1] and 7.64 on Matrilysin.

As for `CC(C)(C)[C@H](NC(=O)[C@H](Cc1ccc(I)cc1)NC(=O)CNC(=O)CC[C@H](NS(=O)(=O)c1ccc(Cl)c(C(F)(F)F)c1)C(=O)O)C(=O)N1CCC[C@H]1CC(N)=O` ({Benzenesulfonyl(4-Cl,3-CF3)-γGlu}-G[Phe(4-I)][Tle][β3hP]-NH2), the figures for the negative-log IC50 (pIC50) (in experiment [1]; at Matrilysin) were 6.16 and 8.08, respectively.

For the compound `CC(C)(C)[C@H](NC(=O)[C@H](Cn1cc(C2CC2)nn1)NC(=O)CNC(=O)CC[C@H](NS(=O)(=O)c1ccc(Cl)c(C(F)(F)F)c1)C(=O)O)C(=O)N1CCC[C@H]1CC(N)=O`, the pIC50 is 5.03 in experiment [1] and 7.40 on Matrilysin.

Turning to `CC(C)(C)[C@H](NC(=O)[C@H](Cc1ccnnc1)NC(=O)CNC(=O)CC[C@H](NS(=O)(=O)c1ccc(Cl)c(C(F)(F)F)c1)C(=O)O)C(=O)N1CCC[C@H]1CC(N)=O` ({Benzenesulfonyl(4-Cl,3-CF3)-γGlu}-G[Ala(4-Pyridazinyl)][Tle][β3hP]-NH2), the figures for the negative-log IC50 (pIC50) (in experiment [1]; at Matrilysin) were 5.85 and 8.55, respectively.

With `CC(C)(C)[C@H](NC(=O)[C@H](Cc1ccc(O)cc1)NC(=O)CNC(=O)CC[C@H](NS(=O)(=O)c1ccc(Cl)c(C(F)(F)F)c1)C(=O)O)C(=O)N1CCC[C@H]1CC(N)=O` ({Benzenesulfonyl(4-Cl,3-CF3)-γGlu}-GY[Tle][β3hP]-NH2), the figures for the negative-log IC50 (pIC50) (in experiment [1]; at Matrilysin) were 5.57 and 8.02, respectively.

With `CC(C)(C)[C@H](NC(=O)[C@@H](NC(=O)CNC(=O)CC[C@H](NS(=O)(=O)c1ccc(Cl)c(C(F)(F)F)c1)C(=O)O)c1ccccc1)C(=O)N1CCC[C@H]1CC(N)=O` ({Benzenesulfonyl(4-Cl,3-CF3)-γGlu}-G[Phg][Tle][β3hP]-NH2), the pIC50 is 5.29 in experiment [1] and 6.42 at Matrilysin.

Consider `CC(C)(C)[C@H](NC(=O)[C@H](Cc1ccc(C(F)(F)F)cc1)NC(=O)CNC(=O)CC[C@H](NS(=O)(=O)c1ccc(Cl)c(C(F)(F)F)c1)C(=O)O)C(=O)N1CCC[C@H]1CC(N)=O` ({Benzenesulfonyl(4-Cl,3-CF3)-γGlu}-G[Phe(4-CF3)][Tle][β3hP]-NH2), for which the negative-log IC50 (pIC50) was 5.77 in experiment [1] and 8.00 on Matrilysin.

As to `CC(C)c1cn(C[C@H](NC(=O)CNC(=O)CC[C@H](NS(=O)(=O)c2ccc(Cl)c(C(F)(F)F)c2)C(=O)O)C(=O)N[C@H](C(=O)N2CCC[C@H]2CC(N)=O)C(C)(C)C)nn1`, the pIC50 was 4.80 in experiment [1] and 7.00 at Matrilysin.

As for `COc1ccc(C[C@H](NC(=O)CNC(=O)CC[C@H](NS(=O)(=O)c2ccc(Cl)c(C(F)(F)F)c2)C(=O)O)C(=O)N[C@H](C(=O)N2CCC[C@H]2CC(N)=O)C(C)(C)C)cc1` ({Benzenesulfonyl(4-Cl,3-CF3)-γGlu}-GY(Me)[Tle][β3hP]-NH2), the results for the pIC50 (in experiment [1]; on Matrilysin) were 5.70 and 7.85, respectively.
